Results reported in patent publication US20230257396A1, “MACROCYCLES AND THEIR USE” (BLOSSOMHILL THERAPEUTICS, INC., priority 2020, published 2023).

How the values were obtained:
Assay in all cases: KINOMEscan kinase binding assay (Eurofins/DiscoveRx), % Ctrl
Settings in all cases: 1 μM
kinases [1] = biological target: T1, kinases (Homo sapiens, UniProt P00519, F317L)
T1 construct: purchased Eurofins/DiscoveRx; host or cells: E. coli BL21-derived host (T7 phage display) for most kinases; HEK-293 for the rest
In short: (§1)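 Competition binding: DNA- or phage-tagged kinases (T7 phage in E. coli BL21, or HEK-293-expressed) with immobilized biotinylated ligand beads and test compound, 1 h at room temperature. Bead-bound kinase eluted and quantified by qPCR; % Ctrl = (compound − positive control)/(negative control − positive control) ×100 at a single compound concentration.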

kinases [2] = biological target: T2, kinases (Homo sapiens, UniProt P00519)
T2 construct: purchased Eurofins/DiscoveRx; host or cells: E. coli BL21-derived host (T7 phage display) for most kinases; HEK-293 for the rest
In short: as §1

kinases [3] = biological target: T3, kinases (Homo sapiens, UniProt P00519, H396P)
T3 construct: purchased Eurofins/DiscoveRx; host or cells: E. coli BL21-derived host (T7 phage display) for most kinases; HEK-293 for the rest
In short: as §1

kinases [4] = biological target: T4, kinases (Homo sapiens, UniProt P10721, L576P)
T4 construct: purchased Eurofins/DiscoveRx; host or cells: E. coli BL21-derived host (T7 phage display) for most kinases; HEK-293 for the rest
In short: as §1

kinases [5] = biological target: T5, kinases (Homo sapiens, UniProt P36888, R834Q)
T5 construct: purchased Eurofins/DiscoveRx; host or cells: E. coli BL21-derived host (T7 phage display) for most kinases; HEK-293 for the rest
T5 sequence (P36888 27-993 R834Q): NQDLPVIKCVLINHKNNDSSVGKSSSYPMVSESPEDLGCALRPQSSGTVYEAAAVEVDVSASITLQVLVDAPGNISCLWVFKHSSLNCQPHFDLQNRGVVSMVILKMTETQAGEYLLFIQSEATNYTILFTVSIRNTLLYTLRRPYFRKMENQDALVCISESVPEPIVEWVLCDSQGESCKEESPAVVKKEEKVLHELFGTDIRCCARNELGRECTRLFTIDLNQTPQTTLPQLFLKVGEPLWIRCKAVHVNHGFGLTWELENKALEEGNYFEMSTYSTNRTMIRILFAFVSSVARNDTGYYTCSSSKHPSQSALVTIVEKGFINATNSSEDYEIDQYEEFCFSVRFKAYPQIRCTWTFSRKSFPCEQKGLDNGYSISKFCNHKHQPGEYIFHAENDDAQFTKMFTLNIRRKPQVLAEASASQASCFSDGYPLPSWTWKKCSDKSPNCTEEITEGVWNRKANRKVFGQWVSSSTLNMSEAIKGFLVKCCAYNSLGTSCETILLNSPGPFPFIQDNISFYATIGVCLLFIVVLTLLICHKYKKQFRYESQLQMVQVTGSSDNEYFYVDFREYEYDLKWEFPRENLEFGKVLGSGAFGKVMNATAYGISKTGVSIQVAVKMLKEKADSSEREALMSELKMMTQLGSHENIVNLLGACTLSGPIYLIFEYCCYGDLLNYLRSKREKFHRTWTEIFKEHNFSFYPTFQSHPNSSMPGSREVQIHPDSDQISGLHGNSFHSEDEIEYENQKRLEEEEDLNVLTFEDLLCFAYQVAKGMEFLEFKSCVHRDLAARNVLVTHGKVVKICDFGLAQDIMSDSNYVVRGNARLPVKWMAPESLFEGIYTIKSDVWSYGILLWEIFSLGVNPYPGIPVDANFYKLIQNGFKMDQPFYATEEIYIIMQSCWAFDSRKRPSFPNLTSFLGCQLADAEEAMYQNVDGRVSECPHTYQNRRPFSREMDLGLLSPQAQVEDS
In short: as §1

kinases [6] = biological target: T6, kinases (Homo sapiens, UniProt P16234)
T6 construct: purchased Eurofins/DiscoveRx; host or cells: E. coli BL21-derived host (T7 phage display) for most kinases; HEK-293 for the rest
In short: as §1

kinases [7] = biological target: T7, kinases (Homo sapiens, UniProt P07949, M918T)
T7 construct: purchased Eurofins/DiscoveRx; host or cells: E. coli BL21-derived host (T7 phage display) for most kinases; HEK-293 for the rest
In short: as §1

kinases [8] = biological target: T8, kinases (Homo sapiens, UniProt P00533, G719C)
T8 construct: purchased Eurofins/DiscoveRx; host or cells: E. coli BL21-derived host (T7 phage display) for most kinases; HEK-293 for the rest
In short: as §1

[9] = target ABL1(F317L)-nonphosphorylated
[10] = target ABL1(F317L)-phosphorylated
[11] = target ABL1(H396P)-nonphosphorylated
[12] = target ABL1(H396P)-phosphorylated

T6 sequence (P16234 24-1089): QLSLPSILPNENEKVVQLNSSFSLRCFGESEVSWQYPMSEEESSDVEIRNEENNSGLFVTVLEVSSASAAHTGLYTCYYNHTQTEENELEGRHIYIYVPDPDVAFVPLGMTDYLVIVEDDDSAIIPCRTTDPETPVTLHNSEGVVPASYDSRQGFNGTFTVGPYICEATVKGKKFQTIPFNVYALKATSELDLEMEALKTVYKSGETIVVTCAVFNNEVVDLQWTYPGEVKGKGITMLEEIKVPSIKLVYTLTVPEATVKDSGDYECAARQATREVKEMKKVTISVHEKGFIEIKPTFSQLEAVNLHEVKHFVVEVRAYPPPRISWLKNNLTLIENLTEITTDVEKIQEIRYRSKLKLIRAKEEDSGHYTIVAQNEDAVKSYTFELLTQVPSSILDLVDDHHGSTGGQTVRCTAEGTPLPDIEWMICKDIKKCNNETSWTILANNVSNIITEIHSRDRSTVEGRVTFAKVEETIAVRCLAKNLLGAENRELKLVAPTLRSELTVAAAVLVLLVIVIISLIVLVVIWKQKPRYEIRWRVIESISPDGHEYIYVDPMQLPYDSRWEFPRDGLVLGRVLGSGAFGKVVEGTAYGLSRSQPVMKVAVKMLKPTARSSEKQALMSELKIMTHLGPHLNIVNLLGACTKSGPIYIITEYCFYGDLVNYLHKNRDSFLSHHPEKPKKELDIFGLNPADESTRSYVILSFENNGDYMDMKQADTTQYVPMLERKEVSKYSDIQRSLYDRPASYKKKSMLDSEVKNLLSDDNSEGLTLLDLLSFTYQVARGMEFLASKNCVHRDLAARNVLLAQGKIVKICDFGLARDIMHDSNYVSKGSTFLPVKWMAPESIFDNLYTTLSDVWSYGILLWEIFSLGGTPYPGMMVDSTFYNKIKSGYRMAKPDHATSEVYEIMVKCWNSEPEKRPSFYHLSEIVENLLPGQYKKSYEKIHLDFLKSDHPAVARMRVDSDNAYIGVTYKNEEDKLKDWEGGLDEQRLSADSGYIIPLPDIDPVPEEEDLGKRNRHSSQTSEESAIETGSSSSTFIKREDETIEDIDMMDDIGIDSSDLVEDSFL
T4 sequence (P10721 26-976 L576P): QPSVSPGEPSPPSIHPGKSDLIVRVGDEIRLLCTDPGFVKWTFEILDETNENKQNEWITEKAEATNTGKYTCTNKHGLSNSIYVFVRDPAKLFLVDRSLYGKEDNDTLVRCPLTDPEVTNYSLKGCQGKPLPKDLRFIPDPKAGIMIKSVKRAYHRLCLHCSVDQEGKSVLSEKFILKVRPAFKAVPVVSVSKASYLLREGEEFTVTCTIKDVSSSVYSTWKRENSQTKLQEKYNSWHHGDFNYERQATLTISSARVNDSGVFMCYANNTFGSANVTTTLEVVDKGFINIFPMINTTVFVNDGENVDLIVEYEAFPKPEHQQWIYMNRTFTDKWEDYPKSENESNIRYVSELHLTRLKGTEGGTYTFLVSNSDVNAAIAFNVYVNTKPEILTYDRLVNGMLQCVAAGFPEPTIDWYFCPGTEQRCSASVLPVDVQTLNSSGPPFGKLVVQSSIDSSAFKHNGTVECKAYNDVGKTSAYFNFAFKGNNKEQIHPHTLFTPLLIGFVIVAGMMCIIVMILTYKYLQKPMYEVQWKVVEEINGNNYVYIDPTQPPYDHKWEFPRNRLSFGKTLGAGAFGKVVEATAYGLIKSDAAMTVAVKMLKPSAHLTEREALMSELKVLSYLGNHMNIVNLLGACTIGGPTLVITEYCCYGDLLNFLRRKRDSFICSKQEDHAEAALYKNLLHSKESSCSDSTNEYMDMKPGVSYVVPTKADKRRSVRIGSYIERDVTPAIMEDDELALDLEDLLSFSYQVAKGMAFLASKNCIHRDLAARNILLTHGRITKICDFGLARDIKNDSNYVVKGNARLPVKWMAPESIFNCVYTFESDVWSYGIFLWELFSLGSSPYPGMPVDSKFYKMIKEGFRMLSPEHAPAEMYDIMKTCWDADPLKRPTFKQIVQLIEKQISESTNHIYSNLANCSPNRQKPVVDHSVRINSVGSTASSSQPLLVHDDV
T7 sequence (P07949 29-1114 M918T): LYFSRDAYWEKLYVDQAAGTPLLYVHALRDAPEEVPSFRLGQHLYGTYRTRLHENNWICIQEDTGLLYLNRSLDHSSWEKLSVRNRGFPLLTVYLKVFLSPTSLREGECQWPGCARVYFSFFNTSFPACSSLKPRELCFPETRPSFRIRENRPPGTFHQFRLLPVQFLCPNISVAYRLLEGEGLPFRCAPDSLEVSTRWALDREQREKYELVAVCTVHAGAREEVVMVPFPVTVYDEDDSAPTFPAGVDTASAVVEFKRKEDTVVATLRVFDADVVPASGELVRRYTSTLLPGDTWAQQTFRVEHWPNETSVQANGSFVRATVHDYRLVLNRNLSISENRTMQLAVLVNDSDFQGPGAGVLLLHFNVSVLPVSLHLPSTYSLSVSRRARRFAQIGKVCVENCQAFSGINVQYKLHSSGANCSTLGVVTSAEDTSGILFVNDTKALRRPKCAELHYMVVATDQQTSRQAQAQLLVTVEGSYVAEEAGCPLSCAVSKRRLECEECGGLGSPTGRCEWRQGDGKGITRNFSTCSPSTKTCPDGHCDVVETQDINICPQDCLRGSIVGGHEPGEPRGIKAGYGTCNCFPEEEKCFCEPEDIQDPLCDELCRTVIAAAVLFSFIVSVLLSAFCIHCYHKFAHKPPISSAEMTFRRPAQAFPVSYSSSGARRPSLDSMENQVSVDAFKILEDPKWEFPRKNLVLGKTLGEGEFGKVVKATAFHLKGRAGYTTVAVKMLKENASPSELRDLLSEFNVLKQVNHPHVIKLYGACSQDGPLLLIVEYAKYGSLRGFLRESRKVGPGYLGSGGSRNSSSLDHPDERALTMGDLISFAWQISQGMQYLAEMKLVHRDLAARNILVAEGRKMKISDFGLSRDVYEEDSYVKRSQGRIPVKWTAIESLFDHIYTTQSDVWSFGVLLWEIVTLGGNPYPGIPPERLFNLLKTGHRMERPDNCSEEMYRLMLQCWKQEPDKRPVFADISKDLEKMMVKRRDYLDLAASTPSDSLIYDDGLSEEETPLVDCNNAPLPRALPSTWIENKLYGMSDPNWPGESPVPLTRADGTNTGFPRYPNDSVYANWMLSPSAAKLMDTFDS

SMILES | % Ctrl, ABL1(F317L)-nonphosphorylated (kinases [1]; ABL1(F317L)-nonphosphorylated) [% Ctrl] | % Ctrl, ABL1(F317L)-phosphorylated (kinases [1]; ABL1(F317L)-phosphorylated) [% Ctrl] | % Ctrl, ABL1-nonphosphorylated (kinases [2]; ABL1-nonphosphorylated) [% Ctrl] | % Ctrl, ABL1-phosphorylated (kinases [2]; ABL1-phosphorylated) [% Ctrl] | % Ctrl, ABL1(H396P)-nonphosphorylated (kinases [3]; ABL1(H396P)-nonphosphorylated) [% Ctrl] | % Ctrl, ABL1(H396P)-phosphorylated (kinases [3]; ABL1(H396P)-phosphorylated) [% Ctrl] | % Ctrl, KIT(L576P) (kinases [4]; KIT(L576P)) [% Ctrl] | % Ctrl, FLT3(R834Q) (kinases [5]; FLT3(R834Q)) [% Ctrl] | % Ctrl, PDGFRA (kinases [6]; PDGFRA) [% Ctrl] | % Ctrl, RET(M918T) (kinases [7]; RET(M918T)) [% Ctrl] | % Ctrl, EGFR(G719C) (kinases [8]; EGFR(G719C)) [% Ctrl] | also measured
Cc1cc2c([nH]1)/C=C1\C(=O)Nc3ccc(cc31)-c1ccnn1CCOCCNC2=O [Ex.39, [19a(20)Z]-2-methyl-6,7,9,10-tetrahydro-1H-15,17-(ethanediylidene)pyrazolo[1,5-d]dipyrrolo[3,4-h:2′,3′-k][1,4,14]oxadiazacyclohexadecine-4,19(5H,18H)-dione] | 98 | 60 | 73 | 78 | 74 | 82 | 100 | 93 | 89 | 97 | 70 | –
Cc1cc2c([nH]1)/C=C1\C(=O)Nc3cc(Cl)c(cc31)OCCO[C@@H](C(=O)NC1CNC1)CN(C)C2=O [Ex. 133, [7R,16a(17)Z]-N-(azetidin-3-yl)-19-chloro-2,5-dimethyl-4,16-dioxo-4,5,6,7,9,10,15,16-octahydro-1H-12,14-(ethanediylidene)dipyrrolo[3,2-i:3′,4′-l][1,4,7]dioxazacyclopentadecine-7-carboxamide] | 77 | 88 | 65 | 68 | 49 | 67 | 8.7 | 49 | 70 | 26 | 92 | –
CN1CCOCCOc2cc3c(cc2Cl)NC(=O)/C3=C\c2[nH]ccc2C1=O [Ex. 143, [16a(17)Z]-19-chloro-2,5-dimethyl-6,7,9,10-tetrahydro-1H-12,14-(ethanediylidene)dipyrrolo[3,2-i:3′,4′-l][1,4,7]oxathiazacyclopentadecine-4,16(5H,15H)-dione] | – | – | – | – | – | – | – | – | – | – | – | % Ctrl, ABL1(F317L)-nonphosphorylated (kinases [1]; [9]): 17 % Ctrl; % Ctrl, ABL1(F317L)-phosphorylated (kinases [1]; [10]): 17 % Ctrl; % Ctrl, ABL1-nonphosphorylated (kinases [2]; target ABL1-nonphosphorylated): 6 % Ctrl; % Ctrl, ABL1-phosphorylated (kinases [2]; target ABL1-phosphorylated): 11 % Ctrl; % Ctrl, ABL1(H396P)-nonphosphorylated (kinases [3]; [11]): 1.6 % Ctrl; % Ctrl, ABL1(H396P)-phosphorylated (kinases [3]; [12]): 11 % Ctrl; % Ctrl, KIT(L576P) (kinases [4]; target KIT(L576P)): 0 % Ctrl; % Ctrl, FLT3(R834Q) (kinases [5]; target FLT3(R834Q)): 33 % Ctrl; % Ctrl, PDGFRA (kinases [6]; target PDGFRA): 41 % Ctrl; % Ctrl, RET(M918T) (kinases [7]; target RET(M918T)): 0.7 % Ctrl; % Ctrl, EGFR(G719C) (kinases [8]; target EGFR(G719C)): 100 % Ctrl
Cc1cc2c([nH]1)/C=C1\C(=O)Nc3ccc(cc31)OCCOCCN(C)C2=O [Ex.91, [16a(17)Z]-2,5-dimethyl-6,7,9,10-tetrahydro-1H-12,14-(ethanediylidene)dipyrrolo[3,2-i:3′,4′-l][1,4,7]dioxazacyclopentadecine-4,16(5H,15H)-dione] | 12 | 20 | 0.75 | 15 | 0.55 | 15 | 14 | 29 | 52 | 7 | 92 | –
Cc1cc2c([nH]1)/C=C1\C(=O)Nc3cc(Cl)c(cc31)OCCOCCN(C)C2=O [Ex. 131, [16a(17)Z]-19-chloro-2,5-dimethyl-6,7,9,10-tetrahydro-1H-12,14-(ethanediylidene)dipyrrolo[3,2-i:3′,4′-l][1,4,7]dioxazacyclopentadecine-4,16(5H,15H)-dione] | 0 | 1.3 | 0 | 0 | 0 | 0 | 0 | 6.6 | 7.7 | 0 | 93 | –
Cc1nn(C)c2c1-c1ccc3c(c1)/C(=C/c1[nH]ccc1C(=O)N(C)CCCO2)C(=O)N3 [Ex. 150, [3a(4)Z]-9,14,16-trimethyl-10,11,13,14-tetrahydro-2H-1,17-(ethanediylidene)pyrazolo[4,3-m]dipyrrolo[3,2-f:3′,4′-i][1,4]oxazacyclopentadecine-3,8(5H,9H)-dione] | – | – | – | – | – | – | – | – | – | – | – | % Ctrl, ABL1(F317L)-nonphosphorylated (kinases [1]; [9]): 87 % Ctrl; % Ctrl, ABL1(F317L)-phosphorylated (kinases [1]; [10]): 82 % Ctrl; % Ctrl, ABL1-nonphosphorylated (kinases [2]; target ABL1-nonphosphorylated): 82 % Ctrl; % Ctrl, ABL1-phosphorylated (kinases [2]; target ABL1-phosphorylated): 82 % Ctrl; % Ctrl, ABL1(H396P)-nonphosphorylated (kinases [3]; [11]): 100 % Ctrl; % Ctrl, ABL1(H396P)-phosphorylated (kinases [3]; [12]): 100 % Ctrl; % Ctrl, KIT(L576P) (kinases [4]; target KIT(L576P)): 94 % Ctrl; % Ctrl, FLT3(R834Q) (kinases [5]; target FLT3(R834Q)): 69 % Ctrl; % Ctrl, PDGFRA (kinases [6]; target PDGFRA): 92 % Ctrl; % Ctrl, RET(M918T) (kinases [7]; target RET(M918T)): 90 % Ctrl; % Ctrl, EGFR(G719C) (kinases [8]; target EGFR(G719C)): 92 % Ctrl
Cc1cc2c([nH]1)/C=C1\C(=O)Nc3cnc(nc31)N(C)CCCOCCN(C)C2=O [Ex.71, [17a(18)Z]-2,5,12-trimethyl-6,7,9,10,11,12-hexahydro-1H-13,15-(azenometheno)dipyrrolo[3,2-f:3′,4′-i][1,4,11,13]oxatriazacyclohexadecine-4,17(5H,16H)-dione] | 100 | 100 | 90 | 93 | 100 | 98 | 100 | 100 | 100 | 91 | 71 | –
